Marks after values point to notes of the source that are not given here.
Key:
Type in all cases: in vivo
[1] = test system: C57BL/6J mice on high-fat diet (HFD); experiment: Hepatic lipids in HFD mice; details: 4 weeks
Experimental: (§1) The following experiment was performed and approved by the guidelines of the Institutional Animal Care and Use Committee of Central Taiwan University of Science and Technology. The 4-week old male C57BL/6J mice (total amount n=63) were purchased from the National Laboratory Animal Breeding and Research Center (Taipei, Taiwan). After acclimatization for one week, all of the mice were divided randomly into the control (CON) group and the high-fat diet (HFD) group. For the following 12 weeks, the CON group (n=9) was kept on a low-fat diet (Diet 12450B, Research Diets, Inc., New Brunswick, N.J., USA), while the HFD group (n=54) was exposed to a high-fat diet (Diet 12451, Research Diets, New Brunswick, N.J., USA). The low-fat diet was composed of protein 20%, carbohydrate 70% and fat 10%, whereas the high-fat diet was composed of protein 20%, carbohydrate 35%, and fat 45% (of total energy, % kcal). After HFD exposure for 8 weeks, the HFD group was further randomly subdivided into 6 groups (n=9 per group) to receive different treatments by oral gavage once daily for four weeks and on HFD. […] The HF+B1, HF+B2, and […] are collectively termed BB-treated HFD groups in the following examples. The CON mice were administered vehicle. After dosing for 4 weeks, the mice were given no food at night and sacrificed after 12 h of fasting on the next day. All of the individual tissues were collected and weighed, and portions were instantly frozen using liquid nitrogen and kept at −80° C. for subsequent target gene analysis. Blood samples (0.8 mL) were collected for analysis of blood parameters.
For hepatic lipid extraction, a 0.375 g liver samples were homogenized with 1 mL distill water for 5 minutes. The dried pellet was finally resuspended in 0.5 mL ethanol and analyzed using a triglycerides kit as used for analyzing the serum lipids set forth above.

[2] = test system: C57BL/6J mice on high-fat diet (HFD); experiment: Absolute tissue weight, body weight, weight gain and food intake in HFD mice; details: 4 weeks
Experimental: as §1
Body weight of each mouse was monitored and measured daily at the same time throughout the experimentation. The difference in body weight between two consecutive days is defined as body weight gain. The food pellets for mice were weighed and put into the food container. Unconsumed pellets of high-fat diet were discarded each day and fresh pellets of high-fat diet were provided to ensure food quality throughout the experimentation. The high-fat food pellets were stored at 4° C.

[3] = test system: C57BL/6J mice on high-fat diet (HFD); experiment: Blood parameters (glucose, insulin, TG, FFA, TC, leptin, adiponectin) in HFD mice; details: 4 weeks
Experimental: as §1, with “For the following 12 weeks, the CON group (n=9) was kept on a low-fat diet (Diet 12450B, Research Diets, Inc., New Brunswick, N.J., USA), while the HFD group (n=54) was exposed to a high-fat diet (Diet 12451, Research Diets, New Brunswick, N.J., USA). The low-fat diet was composed of protein 20%, carbohydrate 70% and fat 10%, whereas the high-fat diet was composed of protein 20%, carbohydrate 35%, and fat 45% (of total energy, % kcal).” left out
A portion of the blood samples obtained from the retro-orbital sinus of fasted mice were immediately used to measure blood glucose levels using Sidekick glucose analyzer (YSI 1500, YSI Incorporated, Yellow Springs, USA) according to the glucose oxidase method. Heparin (30 units/mL, Sigma) was added into other portions of the blood samples. […] Concentrations of plasma triglycerides (TG), total cholesterol (TC), and free fatty acids (FFA) were determined using commercial assay kits according to the manufacturer's instructions (Triglycerides-E test, Cholesterol-E test, and FFA-C test, Wako Pure Chemical, Osaka, Japan). Plasma insulin, leptin, and adiponectin levels were assessed using commercial assay kits according to the manufacturer's instructions (mouse insulin ELISA kit, Mercodia, Uppsala, Sweden; mouse leptin ELISA kit, Morinaga, Yokohama, Japan; Mouse Adiponectin ELISA kit, Crystal Chem International, Downers Grove, Ill., USA).

[4] = test system: epididymal adipocyte of HFD mice; experiment: Histology of epididymal white adipose tissue (adipocyte hypertrophy); details: 4 weeks, three measurements
Experimental: as §1
(§2) Small pieces of epididymal white adipose tissue and liver tissue were fixed with formalin (200 g/kg) neutral buffered solution and embedded in paraffin. Sections of 8 μm […] were cut and stained with hematoxylin and eosin. For microscopic examination, a microscope (Leica, DM2500) was used, and the images were taken using a Leica Digital Camera (DFC-425-C).
Adipocyte hypertrophy, the pathological enlargement of adipocytes, is often found in subjects with type 2 diabetes and hyperlipidemia. To verify the therapeutic effect of the compound of formula I on adipocyte hypertrophy, morphology of the EWAT for the CON group and the BB-treated HFD groups was examined. Micrographs of the EWAT sections for each group were analyzed to determine the mean area of an epididymal adipocyte using the software ImageJ.

[5] = test system: hepatocytes of HFD mice; experiment: Histology of liver tissue (hepatocellular ballooning); details: 4 weeks, grade 0 absence, 1 a few cells
Experimental: as §1, §2
Based on previous report, the designation of histological hepatocellular ballooning findings include grade 0 for absence of degeneration, grade 1 for degeneration in a few cells, and […] for degeneration in many cells.

CN(CCOc1ccc(CC2SC(=O)NC2=O)cc1)c1ccccn1 (centres unmarked) [Rosi, rosiglitazone, reference compound]
Liver lipids Total lipid ([1]; 10 mg/kg/day oral gavage): 70.1 ± 8.2^d mg/g | Liver lipids Triacylglycerol ([1]; 10 mg/kg/day oral gavage): 52.1 ± 7.7^d μmol/g | Absolute tissue weight BAT ([2]; 10 mg/kg/day oral gavage): 0.206 ± 0.012 g | Absolute tissue weight EWAT ([2]; 10 mg/kg/day oral gavage): 0.919 ± 0.097^d g | Absolute tissue weight Liver ([2]; 10 mg/kg/day oral gavage): 0.886 ± 0.031 g | Absolute tissue weight MWAT ([2]; 10 mg/kg/day oral gavage): 0.302 ± 0.029 g | Absolute tissue weight RWAT ([2]; 10 mg/kg/day oral gavage): 0.224 ± 0.032^f g | Absolute tissue weight Skeletal muscle ([2]; 10 mg/kg/day oral gavage): 0.960 ± 0.078 g | Absolute tissue weight Visceral fat ([2]; 10 mg/kg/day oral gavage): 1.143 ± 0.124^e g | Body weight ([2]; 10 mg/kg/day oral gavage): 28.61 ± 1.51 g | Food intake ([2]; 10 mg/kg/day oral gavage): 2.11 ± 0.06 g/day/mouse | Weight gain ([2]; 10 mg/kg/day oral gavage): 0.38 ± 0.32 g | Blood parameters Adiponectin ([3]; 10 mg/kg/day oral gavage): 3.058 ± 0.040^f μg/mL | Blood parameters FFA ([3]; 10 mg/kg/day oral gavage): 1.08 ± 0.11^e mEq/L | Blood parameters Leptin ([3]; 10 mg/kg/day oral gavage): 1.661 ± 0.013^f ng/mL | Blood parameters TC ([3]; 10 mg/kg/day oral gavage): 111.5 ± 2.3^f mg/dL | mean area of an epididymal adipocyte ([4]; 10 mg/kg/day oral gavage): 5886.4 ± 58.7 μm^2 | hepatocellular ballooning mean score ([5]; 10 mg/kg/day oral gavage): 0.8±0.2

CC(C)OC(=O)C(C)(C)Oc1ccc(C(=O)c2ccc(Cl)cc2)cc1 [Feno, fenofibrate, reference compound]
Liver lipids Total lipid ([1]; 250 mg/kg/day oral gavage): 62.4 ± 3.9^f mg/g | Liver lipids Triacylglycerol ([1]; 250 mg/kg/day oral gavage): 43.8 ± 5.6^f μmol/g | Absolute tissue weight BAT ([2]; 250 mg/kg/day oral gavage): 0.139 ± 0.011 g | Absolute tissue weight EWAT ([2]; 250 mg/kg/day oral gavage): 0.763 ± 0.116^f g | Absolute tissue weight Liver ([2]; 250 mg/kg/day oral gavage): 1.669 ± 0.033^f g | Absolute tissue weight MWAT ([2]; 250 mg/kg/day oral gavage): 0.264 ± 0.056 g | Absolute tissue weight RWAT ([2]; 250 mg/kg/day oral gavage): 0.173 ± 0.032^f g | Absolute tissue weight Skeletal muscle ([2]; 250 mg/kg/day oral gavage): 0.990 ± 0.078 g | Absolute tissue weight Visceral fat ([2]; 250 mg/kg/day oral gavage): 0.936 ± 0.147^f g | Body weight ([2]; 250 mg/kg/day oral gavage): 26.92 ± 0.96 g | Weight gain ([2]; 250 mg/kg/day oral gavage): −0.58 ± 0.48^d g | Blood parameters Adiponectin ([3]; 250 mg/kg/day oral gavage): 3.101 ± 0.028^f μg/mL | Blood parameters FFA ([3]; 250 mg/kg/day oral gavage): 0.91 ± 0.08^f mEq/L | Blood parameters Leptin ([3]; 250 mg/kg/day oral gavage): 1.206 ± 0.015^f ng/mL | Blood parameters TC ([3]; 250 mg/kg/day oral gavage): 104.5 ± 5.5^f mg/dL | mean area of an epididymal adipocyte ([4]; 250 mg/kg/day oral gavage): 6982.3±309.7 μm^2 | hepatocellular ballooning mean score ([5]; 250 mg/kg/day oral gavage): 0.6±0.1
